According to patent US20170064954A1, “HERBICIDAL COMPOSITIONS CONTAINING 4-AMINO-3-CHLORO-6-(4-CHLORO-2-FLUORO-3-METHOXYPHENYL)PYRIDINE-2-CARBOXYLIC ACID OR A DERIVATIVE THEREOF, A TRIAZOLOPYRIMIDINE SULFONAMIDE HERBICIDE OR A DERIVATIVE THEREOF, AND A CELL MEMBRANE DISRUPTOR HERBICIDE OR A DERIVATIVE THEREOF” (Dow AgroSciences LLC, priority 2015, published 2017):
“And” between values parts separate entries of the source, which are not always exact repeats. Equal entries are not always repeated.

Experiments:
Test in all cases: Field trial, post-emergence foliar application, visually rated % weed control
Assay type in all cases: in vivo
[1] = test system: Conyza sumatrensis (Guernsey fleabane, ERISU)
Description: (§1) Treatments consisted of the methyl ester of 4-amino-3-chloro-6-(4-chloro-2-fluoro-3-methoxyphenyl)pyridine-2-carboxylic acid (Cmpd 1, halauxifen-methyl) and diclosulam in combination as GF-3220. The form of compound of formula (I) was applied on an acid equivalent basis, and diclosulam was applied on an active ingredient basis. Glufosinate-ammonium salt was applied as various commercial formulations containing 480 grams acid equivalent per liter (g ae/L). Saflufenacil was applied as a commercial formulation containing 700 grams per kilogram (g/kg). Paraquat was applied as a commercial formulation containing 200 g/L.
(§2) Field trials were conducted under standard field conditions. Plot sizes varied from 2-4 meters (m) wide by 2-5 m long. Treatments were applied with small plot backpack sprayers, using pressurized carbon dioxide (CO2) as propellant. Pressure varied from 22-40 pounds per square inch (PSI), with spray tips typically of a Flat Fan type applying water diluent at 100-150 liters per hectare (L/ha). Boom sizes varied from 2-4 m in width. Weed sizes varied, but all treatments were applied as post-emergence treatments to weeds from 2 leaf to 2 tiller growth stages varying from 2-15 inches in height. No additional adjuvant was mixed with the treatments applied in the field.
(§3) Results in Tables 1 to 7 are field trial results for foliar applied compositions. The values reported are percent (%) control visually rated. The predicted percent (%) weed control was determined using Colby's equation. • The compositions tested, application rates employed, plant species tested, and results are given in Tables 1 to 7. • The following abbreviations are used in Tables 1 to 7: • ERISS=Conyza species (fleabane, ERISS) • ERISU=Conyza sumatrensis (Guernsey fleabane) • EPHHL=Euphorbia heterophylla L. (wild poinsettia) • IAQGR=Ipomoea grandifolia (Corda-de-viola) • ERIBO=Conyza bonariensis (fleabane) • g ae/ha=grams acid equivalent per hectare • g ai/ha=grams active ingredient per hectare • Mean % weed control=observed value of percent (%) control rated visually • Predicted mean % weed control=expected value of percent (%) control as calculated by Colby's equation • Cmpd 1=methyl 4-amino-3-chloro-6-(4-chloro-2-fluoro-3-methoxyphenyl)pyridine-2-carboxylate, halauxifen-methyl, or ARYLEX®

[2] = test system: Conyza bonariensis (fleabane, ERIBO); settings: Table 7, ERIBO, 21DAA, Paraquat 200 g ai/ha
Description: as §1, §2, §3

[3] = test system: Ipomoea grandifolia (Corda-de-viola, IAQGR); settings: Table 5, IAQGR, Paraquat 300 g ai/ha
Description: as §1, §2, §3

[4] = test system: Conyza species (fleabane, ERISS)
Description: as §1, §2, §3

[5] = test system: Euphorbia heterophylla L. (wild poinsettia, EPHHL); settings: Table 4, EPHHL
Description: as §1, §2, §3

SMILES: CP(=O)(O)CCC(N)C(=O)O (stereo not drawn) [Glufosinate ammonium]
- Mean % weed control ([1]; Table 1, ERISU, 17DAA, Glufosinate ammonium 366 g ai/ha): 58.75% and 71.25%
- Mean % weed control ([1]; Table 1, ERISU, 28DAA, Glufosinate ammonium 366 g ai/ha): 71.25%
- Mean % weed control ([1]; Table 1, ERISU, 43DAA, Glufosinate ammonium 366 g ai/ha): 78.75%

SMILES: C[n+]1ccc(-c2cc[n+](C)cc2)cc1 [Paraquat, 1,1′-dimethyl-4,4′-bipyridinediium]
- Mean % weed control [2]: 28.3%
- Mean % weed control ([3]; 14DAA): 54.3%
- Mean % weed control ([3]; 21DAA): 45%
- Mean % weed control ([3]; 30DAA): 39.8%
- Mean % weed control ([1]; Table 6, ERISU, 13DAA, Paraquat 100 g ai/ha): 26.3%
- Mean % weed control ([1]; Table 6, ERISU, 13DAA, Paraquat 200 g ai/ha): 40%
- Mean % weed control ([1]; Table 6, ERISU, 22DAA, Paraquat 100 g ai/ha): 41.3% and 41.1%
- Mean % weed control ([1]; Table 6, ERISU, 22DAA, Paraquat 200 g ai/ha): 56.3%
- Mean % weed control ([1]; Table 6, ERISU, 28DAA, Paraquat 100 g ai/ha): 47.5%
- Mean % weed control ([1]; Table 6, ERISU, 28DAA, Paraquat 200 g ai/ha): 61.3%
- Mean % weed control ([4]; Table 3, ERISS, 17DAA, Paraquat 400 g ai/ha): 32.5% and 52.5%
- Mean % weed control ([4]; Table 3, ERISS, 28DAA, Paraquat 400 g ai/ha): 52.5% and 55%
- Mean % weed control ([4]; Table 3, ERISS, 43DAA, Paraquat 400 g ai/ha): 60% and 65%
- Mean % weed control ([5]; 14DAA, Paraquat 300 g ai/ha): 81.8%
- Mean % weed control ([5]; 21DAA, Paraquat 100 g ai/ha): 56%
- Mean % weed control ([5]; 21DAA, Paraquat 300 g ai/ha): 82.8%
- Mean % weed control ([5]; 30DAA, Paraquat 100 g ai/ha): 48.3%
- Mean % weed control ([5]; 30DAA, Paraquat 300 g ai/ha): 81.8%

SMILES: CC(C)N(C)S(=O)(=O)NC(=O)c1cc(-n2c(=O)cc(C(F)(F)F)n(C)c2=O)c(F)cc1Cl [Saflufenacil, 2-chloro-5-[3,6-dihydro-3-methyl-2,6-dioxo-4-(trifluoromethyl)-1(2H)-pyrimidinyl]-4-fluoro-N-[[methyl(1-methylethyl)amino]sulfonyl]benzamide]
- Mean % weed control ([4]; Table 2, ERISS, 17DAA, Saflufenacil 49 g ai/ha): 52.5% and 66.3%
- Mean % weed control ([4]; Table 2, ERISS, 28DAA, Saflufenacil 49 g ai/ha): 66.3%
- Mean % weed control ([4]; Table 2, ERISS, 43DAA, Saflufenacil 49 g ai/ha): 77.5%
